Marks after values point to notes of the source that are not given here.
Key:
[1] = test system: myocardium; assay: Myocardium ischemia (coronary artery ligation) with arterial hypertension: arrhythmia, ischemia and necrosis zones, myoglobin; assay type: in vivo, rats; details: for Arrhythmia duration / Ischemia zone, % of myocardium mass / Necrosis zone, % from ischemia zone / Necrosis zone, % from myocardium mass: 6 hours after bandaging
Experimental: (§1) The apoptosis activity was judged by poly-(ADP-ribose)-polymerase (key ferment of apoptotic cell loss), which was determined using Amersham Pharmacia Biotech test sets. The extent of necrotic cardiomyocites damage was estimated according to the quantity of myoglobin entry in the blood, in which the myoglobin content was measured spectrophotometrically.
(§2) Arterial hypertensia of normotensive rats was reproduced by imposing the ligature in the form of a titanic heliciform ring on a site of an aorta with the arteries of kidneys departing from it. The reached narrowing of an aortic lumen was 2/3 in diameter. Animals were operated on under anesthetic, in which their abdominal cavity was opened. The arterial pressure was measured by use of a gauge with a rubber cuff on the animal's tail. A signal from the gauge was recorded on a Mingograph EMT 118. On the 30th day after the operation, all of the animals were divided into two groups: in the first group the animal's left descending interventricular artery at its top third was ligated - the hard ischemia of a myocardium, and in the second group, an irreversible bilateral occlusion of the general carotids was reproduced with a silk thread (see example 9). […] Both groups of animals were euthanased on the 10th day after the operation. All of the investigated connections were introduced intravenously (this method of introduction was chosen to reflect the maximum effect of the medication) within 15 minutes after coronary artery bandaging. The developed means was also introduced intravenously in the form of an infusion in 5% glucose, or in tablet form with an oral administration, or in a kind of suppository.

[2] = test system: poly-(ADP-ribose)-polymerase; assay: PARP activity during myocardium ischemia with arterial hypertension; assay type: in vivo, rats; details: no unit in table (b49 gives the norm in pkMole/mg of protein)
Experimental: as §1
as §2, with “All of the investigated connections were introduced intravenously (this method of introduction was chosen to reflect the maximum effect of the medication) within 15 minutes after coronary artery bandaging. The developed means was also introduced intravenously in the form of an infusion in 5% glucose, or in tablet form with an oral administration, or in a kind of suppository.” left out

[3] = test system: low-resistant to hypoxia animals; assay: Acute hypobaric anoxia in combination with hypercapnia (lifting to 11,500 m): lifetime, loss of pose time, restitution time, stability factor; assay type: in vivo; details: for Stability factor: ratio of duration to restitution time
Experimental: (§3) Example 7. Acute hypobaric anoxia (as one of the most adequate methods of hypoxia study) in combination with hypercapnia was modeled by "lifting" low-resistant to hypoxia animals to a critical altitude of 11,500 m at a speed of 1,200 m/min. If at this altitude for more than 10 minutes, hypoxia modeling stopped, and the animals were considered conditionally "high-resistant", and animals that lived less than 10 minutes were considered conditionally "low-resistant". In the present study, only animals with low-resistance to hypoxia were used. During the second experiment of "lifting" animals in order to simulate hypobaric anoxia, in combination with hypercapnia, these parameters were recorded: loss of pose time (LPT), lifetime - time from the end of "lifting" until respiratory standstill or the first atonal inhalation occurrence, restitution time (RT) - from a respiratory standstill until active pose restoration after descending the animal. The hypoxia stability factor was calculated as a ratio of the duration to the restitution time, an increase of which means the growth of the organism's resistance to the occurrence of extreme oxygen deprivation.
(§4) The studied substances were injected intravenously (method that reflects the maximum effect of the medication) 15 minutes prior to the experiment. The designed medication was also injected intravenously in the form of an infusion or pills that were administered orally or a suppository.

[4] = test system: poly-(ADP-ribose)-polymerase; assay: PARP activity in myocardium and brain at acute hypobaric hypoxia with hypercapnia; assay type: in vivo
Experimental: as §1, §3, §4

[5] = 100 mg/kg intravenously within 15 minutes after coronary artery bandaging
[6] = 50 mg/kg intravenously 15 minutes prior to the experiment
[7] = 100 mg/kg intravenously 15 minutes prior to the experiment
[8] = 500 mg/kg intravenously 15 minutes prior to the experiment
[9] = 75 mg/kg intravenously within 15 minutes after coronary artery bandaging
[10] = 1.0 mg/kg intravenously 15 minutes prior to the experiment
[11] = 10.0 mg/kg intravenously 15 minutes prior to the experiment

CCc1nc(C)ccc1O [3-hydroxy-6-methyl-2-ethylpyridine]
Arrhythmia duration [1, 5]: 58 ± 9 min
Ischemia zone, % of myocardium mass [1, 5]: 39±3 % of myocardium mass
Necrosis zone, % from ischemia zone [1, 5]: 67±3 % from ischemia zone
Necrosis zone, % from myocardium mass [1, 5]: 26±9 % from myocardium mass
Myoglobin content after 8 hours [1, 5]: 127±12 mcg/g dry solid matter
PARP activity [2, 5]: 0,256± 0,032

CCc1nc(C)ccc1O.O=C(O)CCC(=O)O [3-oxy-3-methyl-6-oxypyridine succinate]
Duration [3, 6]: 778 ± 107 s
Loss of Pose Time [3, 6]: 136 ± 22 s
Restitution time [3, 6]: 680 ± 69 s
Stability factor [3, 6]: 1.14±0.12
Duration [3, 7]: 707 ± 145 s
Loss of Pose Time [3, 7]: 156 ± 29 s
Restitution time [3, 7]: 642 ± 69 s
Stability factor [3, 7]: 1.10±0.13
Duration [3, 8]: 784 ± 107 s
Loss of Pose Time [3, 8]: 136 ± 39 s
Restitution time [3, 8]: 690 ± 83 s
Stability factor [3, 8]: 1.14±0.10
PARP activity, % of control brain [4, 6]: 312±29 % of control
PARP activity, % of control myocardium [4, 6]: 204±21 % of control
PARP activity, % of control brain [4, 7]: 317±21 % of control
PARP activity, % of control myocardium [4, 7]: 208±29 % of control
PARP activity, % of control brain [4, 8]: 302±32 % of control
PARP activity, % of control myocardium [4, 8]: 202±19 % of control

C[N+](C)(C)C[C@H](O)CC(=O)[O-] [L-carnitine]
Arrhythmia duration [1, 9]: 68 ± 8 min
Ischemia zone, % of myocardium mass [1, 9]: 40±3 % of myocardium mass
Necrosis zone, % from ischemia zone [1, 9]: 70±5 % from ischemia zone
Necrosis zone, % from myocardium mass [1, 9]: 28±9 % from myocardium mass
Myoglobin content after 8 hours [1, 9]: 132±10 mcg/g dry solid matter
PARP activity [2, 9]: 0,406± 0,030

O=C([O-])CCCO.[Li+] [Lithium oxybutyrate]
Duration [3, 7]: 1345 ± 89 s
Loss of Pose Time [3, 7]: 436+90** sec
Restitution time [3, 7]: 885 ± 82 s
Stability factor [3, 7]: 1.4±0.2
PARP activity, % of control brain [4, 7]: 300±82 % of control
PARP activity, % of control myocardium [4, 7]: 200±33 % of control

NC(=O)c1ccc[n+]([C@@H]2O[C@H](COP(=O)([O-])OP(=O)(O)OC[C@H]3O[C@@H](n4cnc5c(N)ncnc54)[C@H](O)[C@@H]3O)[C@@H](O)[C@H]2O)c1 [NAD, nicotine-amide-adenine-dinucleotide]
Duration [3, 10]: 2034 ± 234 s
Loss of Pose Time [3, 10]: 936 ± 79 s
Restitution time [3, 10]: 1042 ± 44 s
Stability factor [3, 10]: 1.95±0.25
Duration [3, 11]: 2077 ± 109 s
Loss of Pose Time [3, 11]: 1036 ± 91 s
Restitution time [3, 11]: 1000 ± 82 s
Stability factor [3, 11]: 2.08±0.22
PARP activity, % of control myocardium [4, 10]: 100±29 % of control
PARP activity, % of control myocardium [4, 11]: 103±24 % of control

NC(=S)N=C(N)N [hutimine]
Duration [3, 7]: 986 ± 87 s
Loss of Pose Time [3, 7]: 186 ± 32 s
Restitution time [3, 7]: 685 ± 82 s
Stability factor [3, 7]: 1.45±0.12
PARP activity, % of control brain [4, 7]: 290±83 % of control
PARP activity, % of control myocardium [4, 7]: 212±23 % of control

OC[C@H]1O[C@@H](n2cnc3c(O)ncnc32)[C@H](O)[C@@H]1O [inosine]
Duration [3, 7]: 754 ± 30 s
Loss of Pose Time [3, 7]: 186 ± 39 s
Restitution time [3, 7]: 680 ± 69 s
Stability factor [3, 7]: 1.16±0.16
PARP activity, % of control brain [4, 7]: 242±24 % of control
PARP activity, % of control myocardium [4, 7]: 192±23 % of control

O=C(O)CCC(=O)O [succinic acid]
Duration [3, 7]: 747 ± 90 s
Loss of Pose Time [3, 7]: 121 ± 34 s
Restitution time [3, 7]: 1042 ± 69 s
Stability factor [3, 7]: 1.0±0.2
PARP activity, % of control brain [4, 7]: 325±20 % of control
PARP activity, % of control myocardium [4, 7]: 225±22 % of control
